# Experimental data published in BindingDB's records for PubMed 10411588 (The University of Calgary, 1999).
# Where a SMILES comes first, the peptide text is derived from it.
# Target: T1, Proteinase-activated receptor 2 (Rattus norvegicus, UniProt Q63645)
# T1 sequence (Q63645 whole entry): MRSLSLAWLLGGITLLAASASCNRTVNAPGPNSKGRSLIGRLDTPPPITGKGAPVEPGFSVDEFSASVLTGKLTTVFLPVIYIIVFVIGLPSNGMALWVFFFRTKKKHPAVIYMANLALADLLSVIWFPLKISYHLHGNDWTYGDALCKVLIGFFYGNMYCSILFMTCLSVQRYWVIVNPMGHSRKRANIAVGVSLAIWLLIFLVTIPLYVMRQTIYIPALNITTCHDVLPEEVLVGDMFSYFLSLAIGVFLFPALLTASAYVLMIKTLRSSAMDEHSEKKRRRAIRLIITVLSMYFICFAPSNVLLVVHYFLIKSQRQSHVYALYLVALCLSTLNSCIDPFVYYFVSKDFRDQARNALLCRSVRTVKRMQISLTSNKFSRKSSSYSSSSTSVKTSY
row,SMILES,Ki [nM]
1,CC[C@H](C)[C@H](NC(=O)[C@H](CC(C)C)NC(=O)[C@@H](N)CO)C(=O)NCC(=O)N[C@@H](CCCNC(=N)N)C(=O)N[C@@H](CC(C)C)C(N)=O [CAS_171436-38-7] (H-SLIGRL-NH2),260
2,CC(C)C[C@H](NC(=O)[C@H](CC(C)C)NC(=O)[C@H](Cc1ccccc1)NC(=O)[C@@H](N)CO)C(=O)N[C@@H](CCCN=C(N)N)C(N)=O [SFLLR-NH2],2300
3,CC(C)C[C@H](NC(=O)[C@H](CC(C)C)NC(=O)[C@H](Cc1ccccc1)NC(=O)[C@@H](N)CO)C(=O)N[C@@H](CCCN=C(N)N)C(=O)O [SFLLR-OH],> 10000
4,CC[C@H](C)[C@H](NC(=O)[C@H](CC(C)C)NC(=O)C=Cc1ccccc1)C(=O)NCC(=O)N[C@@H](CCCNC(=N)N)C(=O)N[C@@H](CC(C)C)C(=O)N[C@@H](CCCN)C(N)=O [trans-cinnamoyl-LIGRLO-NH2] (HELM PEPTIDE1{[O=C(C=Cc1ccccc1)[*:2]].L.I.G.R.L.[Orn].[am]}$$$$V2.0),260
